Peptide text beside a SMILES is read from it.
Assays:
[1] = system: sMAC activation (Sestrin 2, p-p38); test: Titration of DOS46L in senescent CD4+ CD27− CD28− T cells, immunoblot; assay type: cell-based, human; details: within 4 hours of treatment
Experimental: FIG. 7 illustrates titration of DOS46L. (A-B) CD4+ CD27− CD28− T cells were isolated from PBMCs from healthy donors and treated with increasing doses of DOS46L compound for 4 hours and harvested for immunoblot analysis. (A) Levels of Sestrin 2, p-p38 and H2B were evaluated by immunoblot. (B) Quantification of Sestrin 2 was analysed with Histone 3 as a loading control. Represented are the mean values±SEM of at least three independent experiments. Values are compared using One-Way ANOVA test followed by Tukey's post hoc test. (C-D) CD4+ CD27−CD28− T cells were treated with DOS46L compound (10 uM) for 0.5, 1, 2 and 4 hours and harvested for immunoblot analysis at indicated time points. (C) Levels of Sestrin 1, Sestrin 2, and Sestrin 3 were evaluated by immunoblot. Histone 3 was used as a loading control. (D) Quantification of Sestrin 1, Sestrin 2 and Sestrin 3, with Histone 3 as a loading control. Represented are the mean values±SEM of at least four independent experiments. Values are compared using One-Way ANOVA test followed by Tukey's post hoc test or Student's T-test. *p<0.05, **p<0.01
• 1. CD4+ cells were separated from PBMC using appropriate microbeads kit (Miltenyi) • 2. Cells were resuspended in whole RPMI medium and plated in the 24-multiwell plate • 3. Then activated for 4 hrs with DOS compounds • 4. […]

[2] = system: influenza specific antibody titres; assay type: in vivo; details: old mice, single dose along with the vaccine, 2, 4 and 8 weeks after vaccination, versus young mice
Sestrin 2 = molecular target: T1, Sestrin 2 (Homo sapiens, UniProt P58004); test: Proteasomal degradation and ubiquitination of sestrin 2 (MG-132 pre-treatment, immunoprecipitation, immunoblot); assay type: cell-based; set-up: endogenous in cells; host or cells: primary CD4+ T cells from PBMCs of healthy donors
T1 sequence (P58004 1-480): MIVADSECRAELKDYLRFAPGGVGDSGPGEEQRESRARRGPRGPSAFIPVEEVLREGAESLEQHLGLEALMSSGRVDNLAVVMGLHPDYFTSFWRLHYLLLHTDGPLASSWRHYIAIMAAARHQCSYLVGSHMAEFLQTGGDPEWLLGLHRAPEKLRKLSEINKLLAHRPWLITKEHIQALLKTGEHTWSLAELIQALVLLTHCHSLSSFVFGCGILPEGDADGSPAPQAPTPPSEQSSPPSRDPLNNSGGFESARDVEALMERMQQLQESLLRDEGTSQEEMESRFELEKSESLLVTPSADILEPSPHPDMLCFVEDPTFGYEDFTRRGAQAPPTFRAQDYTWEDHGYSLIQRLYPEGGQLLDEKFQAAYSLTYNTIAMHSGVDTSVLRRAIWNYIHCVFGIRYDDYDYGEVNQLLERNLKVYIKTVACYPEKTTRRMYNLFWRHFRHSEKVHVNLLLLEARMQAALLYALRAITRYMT
Experimental: FIG. 6 illustrates sMAC disruption by DOS46L. (A) CD4+ T cells were purified from PBMCs from healthy donors and treated with DOS46L (10 uM) for the indicated time points. The binding of AMPK to Sestrin 2 was quantified against the total level of Sestrin 2 immunoprecipitated and detected by ELISA. IgG immunoprecipitates served as background control. (B) Cells were pre-treated with proteasome-inhibitor MG-132 (10 uM) for 30 min and subsequently treated with DOS46L (10 uM) for 4 hours. Cells were harvested for immunoblot analysis or proceeded to immunoprecipitation. Levels of Sestrin 2, p38, and AMPK were evaluated by immunoblotting. H3 was used as a loading control. Representative images of 3 experiments are shown. (C) Immunoblot levels of Ubiquitin, Sestrin 2 and Histone 3 in Sestrin 2 immunoprecipitates and their lysates were analysed. Representative images are shown (top). The mean values (bottom) of ubiquitinated proteins in Sestrin 2 immunoprecipitates are shown. Results are presented as a mean±SD of 4 repeated experiments. Student's T-test was used to analyse the data. **p<0.01
• 1. Cell pellet was lysed with 100 μL of denaturing lysis buffer • 2. Then mixed well by vortexing vigorously for 2-3 sec at maximum speed. • 3. Samples were then boiled at 95° C. for 5 min. • 4. Samples were then diluted 900 μl of non-denaturing lysis buffer and mixed gently. • 5. […]

## CC[C@H](C)[C@@H]1NC(=O)[C@H](Cc2ccccc2)NC(=O)[C@H](C)NC(=O)[C@H](C(C)C)NC(=O)[C@@H]2CCCN2C1=O [DOS46L] (cyclo(AFIPV))
[1]
  concentration from which sMAC activation is suppressed: 16 nM
[2]
  influenza specific antibody titres: completely restored
Sestrin 2; MG-132 10 uM 30 min, then DOS46L 10 uM 4 hours
  inhibition of sestrin and AMPK after proteasome inhibitor pre-treatment: vanished
Sestrin 2; T cells exposed to DOS46L 10 uM, 4 hours
  ubiquitinated sestrin 2 immunoprecipitated: increased amount
